From ChEMBL document CHEMBL1201861, “Genomics of Drug Sensitity in Cancer screening data, Wellcome Trust Sanger Institute”
pIC50: −log10 of the molar value.

How the values were obtained:
Assay in all cases: cells
Conditions in all cases: Homo sapiens
[1] = system: MZ7-mel; assay type: functional, cell-based;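 further: growth inhibition of human MZ7-mel cells, measured by a cell viability assay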
Description: SANGER: Inhibition of human MZ7-mel cell growth in a cell viability assay.

[2] = system: NCI-H1838; assay type: functional, cell-based;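 further: growth inhibition of NCI-H1838 cells, determined with a cell viability readout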
Description: SANGER: Inhibition of human NCI-H1838 cell growth in a cell viability assay.

[3] = system: MZ1-PC; assay type: functional, cell-based;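 further: cell viability assay measuring growth inhibition of human MZ1-PC cells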
Description: SANGER: Inhibition of human MZ1-PC cell growth in a cell viability assay.

[4] = system: A388; assay type: functional, cell-based;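 further: growth inhibition of human A388 cells, read out with a cell viability assay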
Description: SANGER: Inhibition of human A388 cell growth in a cell viability assay.

[5] = system: MS-1; assay type: functional, cell-based;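 further: growth inhibition of MS-1 cells, read out by cell viability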
Description: SANGER: Inhibition of human MS-1 cell growth in a cell viability assay.

[6] = system: KP-N-YS; assay type: functional, cell-based;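 further: cell viability assay measuring inhibition of cell line growth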
Description: SANGER: Inhibition of human KP-N-YS cell growth in a cell viability assay.

[7] = system: ES6; assay type: functional, cell-based;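 further: growth inhibition of human ES6 cells, read out with a cell viability assay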
Description: SANGER: Inhibition of human ES6 cell growth in a cell viability assay.

[8] = system: ES3; assay type: functional, cell-based;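 further: growth inhibition of ES3 cells, read out with a cell viability assay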
Description: SANGER: Inhibition of human ES3 cell growth in a cell viability assay.

[9] = system: C2BBe1; assay type: functional, cell-based;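 further: growth inhibition of C2BBe1 cells, read out through a viability assay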
Description: SANGER: Inhibition of human C2BBe1 cell growth in a cell viability assay.

[10] = system: TE-11; assay type: functional, cell-based;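 further: growth inhibition of human TE-11 cells, read out by a cell viability assay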
Description: SANGER: Inhibition of human TE-11 cell growth in a cell viability assay.

[11] = system: LB831-BLC; assay type: functional, cell-based;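 further: growth inhibition of LB831-BLC cells, read out with a cell viability assay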
Description: SANGER: Inhibition of human LB831-BLC cell growth in a cell viability assay.

[12] = system: COR-L88; assay type: functional, cell-based;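 further: growth inhibition of COR-L88 cells, read out with a cell viability assay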
Description: SANGER: Inhibition of human COR-L88 cell growth in a cell viability assay.

[13] = system: KGN; assay type: functional, cell-based;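 further: growth inhibition of KGN cells, read out with a cell viability assay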
Description: SANGER: Inhibition of human KGN cell growth in a cell viability assay.

[14] = system: A4-Fuk; assay type: functional, cell-based;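 further: growth inhibition of A4-Fuk cells, read out by a cell viability assay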
Description: SANGER: Inhibition of human A4-Fuk cell growth in a cell viability assay.

[15] = system: SK-PN-DW; assay type: functional, cell-based;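 further: growth inhibition measured with a viability assay on these cells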
Description: SANGER: Inhibition of human SK-PN-DW cell growth in a cell viability assay.

[16] = system: SW 954; assay type: functional, cell-based;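 further: growth inhibition of SW954 human cancer cells, read out as cell viability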
Description: SANGER: Inhibition of human SW954 cell growth in a cell viability assay.

[17] = system: KM12; assay type: functional, cell-based;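 further: KM12 cell growth inhibition, read out with a cell viability assay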
Description: SANGER: Inhibition of human KM12 cell growth in a cell viability assay.

[18] = system: HDLM-2; assay type: functional, cell-based;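 further: cell viability assay measuring suppression of HDLM-2 proliferation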
Description: SANGER: Inhibition of human HDLM-2 cell growth in a cell viability assay.

[19] = system: EW-16; assay type: functional, cell-based;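 further: growth inhibition of human EW-16 cells, read out as cell viability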
Description: SANGER: Inhibition of human EW-16 cell growth in a cell viability assay.

[20] = system: ES8; assay type: functional, cell-based;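 further: growth inhibition of human ES8 cells, read out with a cell viability assay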
Description: SANGER: Inhibition of human ES8 cell growth in a cell viability assay.

[21] = system: NCI-H1581; assay type: functional, cell-based;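 further: cell growth inhibition read out by a viability assay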
Description: SANGER: Inhibition of human NCI-H1581 cell growth in a cell viability assay.

[22] = system: GI-1; assay type: functional, cell-based;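 further: growth inhibition of human GI-1 cells, measured with a cell viability readout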
Description: SANGER: Inhibition of human GI-1 cell growth in a cell viability assay.

[23] = system: 697; assay type: functional, cell-based
Description: SANGER: Inhibition of human 697 cell growth in a cell viability assay.

[24] = system: JVM-3; assay type: functional, cell-based;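 further: growth inhibition of human JVM-3 cells, read out with a cell viability assay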
Description: SANGER: Inhibition of human JVM-3 cell growth in a cell viability assay.

[25] = system: EW-13; assay type: functional, cell-based;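 further: growth inhibition of EW-13 cells, read out with a cell viability assay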
Description: SANGER: Inhibition of human EW-13 cell growth in a cell viability assay.

[26] = system: ES1; assay type: functional, cell-based;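 further: growth inhibition of ES1 cells, read out with a cell viability assay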
Description: SANGER: Inhibition of human ES1 cell growth in a cell viability assay.

[27] = system: NCI-H526; assay type: functional, cell-based;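 further: growth inhibition of the human NCI-H526 cell line, measured by a cell viability assay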
Description: SANGER: Inhibition of human NCI-H526 cell growth in a cell viability assay.

[28] = system: NCI-H1648; assay type: functional, cell-based;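 further: cell viability assay measuring inhibition of NCI-H1648 cell growth, from the Sanger screening data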
Description: SANGER: Inhibition of human NCI-H1648 cell growth in a cell viability assay.

[29] = system: LB1047-RCC; assay type: functional, cell-based;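 further: inhibition of cell growth, determined with a cell viability assay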
Description: SANGER: Inhibition of human LB1047-RCC cell growth in a cell viability assay.

[30] = system: K5; assay type: functional, cell-based
Description: SANGER: Inhibition of human K5 cell growth in a cell viability assay.

[31] = system: GB-1; assay type: functional, cell-based;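 further: growth of GB-1 cells judged by a viability assay, IC50 marks the concentration inhibiting growth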
Description: SANGER: Inhibition of human GB-1 cell growth in a cell viability assay.

[32] = system: COLO-684; assay type: functional, cell-based
Description: SANGER: Inhibition of human COLO-684 cell growth in a cell viability assay.

[33] = system: LOX IMVI; assay type: functional, cell-based
Description: SANGER: Inhibition of human LOXIMVI cell growth in a cell viability assay.

[34] = system: EW-3; assay type: functional, cell-based;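 further: cell viability assay read-out, IC50 reflects inhibition of growth of the EW-3 cells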
Description: SANGER: Inhibition of human EW-3 cell growth in a cell viability assay.

[35] = system: KG-1; assay type: functional, cell-based;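 further: growth inhibition of KG-1 cells, read out by a cell viability assay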
Description: SANGER: Inhibition of human KG-1 cell growth in a cell viability assay.

[36] = system: J-RT3-T3-5; assay type: functional, cell-based;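 further: cell viability assay measuring growth inhibition of human J-RT3-T3-5 cells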
Description: SANGER: Inhibition of human J-RT3-T3-5 cell growth in a cell viability assay.

[37] = system: U-266; assay type: functional, cell-based
Description: SANGER: Inhibition of human U-266 cell growth in a cell viability assay.

[38] = system: LS-411N; assay type: functional, cell-based
[39] = system: CGTH-W-1; assay type: functional, cell-based;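 further: growth inhibition of human CGTH-W-1 cells measured by cell viability assay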
Description: SANGER: Inhibition of human CGTH-W-1 cell growth in a cell viability assay.

[40] = system: LB771-HNC; assay type: functional, cell-based;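 further: growth inhibition of LB771-HNC human cells, read out with a cell viability assay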
Description: SANGER: Inhibition of human LB771-HNC cell growth in a cell viability assay.

[41] = system: MOLT-16; assay type: functional, cell-based;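 further: growth inhibition of human MOLT-16 cells, read out with a cell viability assay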
Description: SANGER: Inhibition of human MOLT-16 cell growth in a cell viability assay.

[42] = system: TE-1; assay type: functional, cell-based;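 further: growth inhibition of the human TE-1 cell line, read out with a cell viability assay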
Description: SANGER: Inhibition of human TE-1 cell growth in a cell viability assay.

[43] = system: CTB-1; assay type: functional, cell-based
Description: SANGER: Inhibition of human CTB-1 cell growth in a cell viability assay.

[44] = system: JAR; assay type: functional, cell-based;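 further: growth inhibition of human JAR cells determined with a cell viability assay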
Description: SANGER: Inhibition of human JAR cell growth in a cell viability assay.

[45] = system: BB49-HNC; assay type: functional, cell-based;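 further: cell viability assay read-out, reported as inhibition of BB49-HNC cell growth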
Description: SANGER: Inhibition of human BB49-HNC cell growth in a cell viability assay.

[46] = system: NB69; assay type: functional, cell-based;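 further: growth inhibition of NB69 cells, determined by a cell viability assay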
Description: SANGER: Inhibition of human NB69 cell growth in a cell viability assay.

[47] = system: DB; assay type: functional, cell-based
Description: SANGER: Inhibition of human DB cell growth in a cell viability assay.

[48] = system: NCI-H1355; assay type: functional, cell-based;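 further: growth inhibition of human NCI-H1355 cells, read out by a cell viability assay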
Description: SANGER: Inhibition of human NCI-H1355 cell growth in a cell viability assay.

[49] = system: NMC-G1; assay type: functional, cell-based;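 further: growth inhibition of the NMC-G1 cell line, measured with a cell viability read-out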
Description: SANGER: Inhibition of human NMC-G1 cell growth in a cell viability assay.

[50] = system: SCC-15; assay type: functional, cell-based;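 further: growth inhibition of SCC-15 cells, read out with a cell viability assay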
Description: SANGER: Inhibition of human SCC-15 cell growth in a cell viability assay.

[51] = system: SK-MEL-1; assay type: functional, cell-based;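 further: growth inhibition of human SK-MEL-1 cells, read out by a cell viability assay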
Description: SANGER: Inhibition of human SK-MEL-1 cell growth in a cell viability assay.

[52] = system: TE-5; assay type: functional, cell-based;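 further: inhibition of cell growth, read out by a cell viability assay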
Description: SANGER: Inhibition of human TE-5 cell growth in a cell viability assay.

[53] = system: D283 Med; assay type: functional, cell-based
Description: SANGER: Inhibition of human D-283MED cell growth in a cell viability assay.

[54] = system: SBC-1; assay type: functional, cell-based;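 further: cell viability assay measuring growth inhibition of the SBC-1 cell line, IC50 being the concentration that halves growth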
Description: SANGER: Inhibition of human SBC-1 cell growth in a cell viability assay.

[55] = system: MV4-11; assay type: functional, cell-based, MV-4-11;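 further: cell viability readout measuring growth inhibition of human MV-4-11 cells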
Description: SANGER: Inhibition of human MV-4-11 cell growth in a cell viability assay.

[56] = system: GR-ST; assay type: functional, cell-based
Description: SANGER: Inhibition of human GR-ST cell growth in a cell viability assay.

[57] = system: TE-6; assay type: functional, cell-based;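 further: growth inhibition of TE-6 cells, read out with a cell viability assay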
Description: SANGER: Inhibition of human TE-6 cell growth in a cell viability assay.

[58] = system: ACN; assay type: functional, cell-based;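 further: growth inhibition of the human ACN cell line, read out via cell viability testing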
Description: SANGER: Inhibition of human ACN cell growth in a cell viability assay.

[59] = system: MOLT-4; assay type: functional, cell-based
Description: SANGER: Inhibition of human MOLT-4 cell growth in a cell viability assay.

[60] = system: RPMI-8226; assay type: functional, cell-based
Description: SANGER: Inhibition of human RPMI-8226 cell growth in a cell viability assay.

[61] = system: HCE-4; assay type: functional, cell-based
Description: SANGER: Inhibition of human HCE-4 cell growth in a cell viability assay.

[62] = system: RKO; assay type: functional, cell-based
Description: SANGER: Inhibition of human RKO cell growth in a cell viability assay.

[63] = system: MFH-ino; assay type: functional, cell-based
Description: SANGER: Inhibition of human MFH-ino cell growth in a cell viability assay.

[64] = system: TE-9; assay type: functional, cell-based
Description: SANGER: Inhibition of human TE-9 cell growth in a cell viability assay.

[65] = system: NCI-H209; assay type: functional, cell-based
Description: SANGER: Inhibition of human NCI-H209 cell growth in a cell viability assay.

[66] = system: HEL; assay type: functional, cell-based
Description: SANGER: Inhibition of human HEL cell growth in a cell viability assay.

Question: How did the pIC50 [1] turn out when `COc1cc(Nc2c(C#N)cnc3cc(OCCCN4CCN(C)CC4)c(OC)cc23)c(Cl)cc1Cl` [BOSUTINIB] was run?
Answer: The pIC50 was under 5.70.

Question: And the pIC50 [2]?
Answer: Its pIC50 is under 5.70.

Question: And the pIC50 [3]?
Answer: The pIC50 was under 5.70.

Question: And the pIC50 [4]?
Answer: Its pIC50 is under 5.70.

Question: And the pIC50 [5]?
Answer: The pIC50 was under 5.70.

Question: And the pIC50 [6]?
Answer: The pIC50 was under 5.70.

Question: And the pIC50 [7]?
Answer: The pIC50 was under 5.70.

Question: And the pIC50 [8]?
Answer: The pIC50 was under 5.70.

Question: What about the pIC50 [9] of the same compound?
Answer: The pIC50 was under 5.70.

Question: And the pIC50 [10]?
Answer: Its pIC50 is under 5.70.

Question: And the pIC50 [11]?
Answer: The pIC50 was under 5.70.

Question: What about the pIC50 [12] of the same compound?
Answer: Its pIC50 is under 5.70.

Question: What about the pIC50 [13] of the same compound?
Answer: The pIC50 was under 5.70.

Question: What about the pIC50 [14] of the same compound?
Answer: The pIC50 was 5.88.

Question: And the pIC50 [15]?
Answer: Its pIC50 is under 5.70.

Question: What about the pIC50 [16] of the same compound?
Answer: Its pIC50 is 5.81.

Question: And the pIC50 [17]?
Answer: Its pIC50 is under 5.70.

Question: And the pIC50 [18]?
Answer: Its pIC50 is under 5.70.

Question: What about the pIC50 [19] of the same compound?
Answer: Its pIC50 is 5.84.

Question: And the pIC50 [20]?
Answer: Its pIC50 is under 5.70.

Question: What about the pIC50 [21] of the same compound?
Answer: The pIC50 was under 5.70.

Question: And the pIC50 [22]?
Answer: The pIC50 was under 5.70.

Question: What about the pIC50 [23] of the same compound?
Answer: Its pIC50 is 6.34.

Question: And the pIC50 [24]?
Answer: The pIC50 was 5.98.

Question: And the pIC50 [25]?
Answer: Its pIC50 is under 5.70.

Question: What about the pIC50 [26] of the same compound?
Answer: Its pIC50 is 6.17.

Question: And the pIC50 [27]?
Answer: Its pIC50 is 5.70.

Question: What about the pIC50 [28] of the same compound?
Answer: Its pIC50 is under 5.70.

Question: And the pIC50 [29]?
Answer: Its pIC50 is 5.91.

Question: And the pIC50 [30]?
Answer: Its pIC50 is under 5.70.

Question: What about the pIC50 [31] of the same compound?
Answer: Its pIC50 is under 5.70.

Question: What about the pIC50 [32] of the same compound?
Answer: The pIC50 was under 5.70.

Question: And the pIC50 [33]?
Answer: The pIC50 was 5.76.

Question: What about the pIC50 [34] of the same compound?
Answer: Its pIC50 is 6.25.

Question: And the pIC50 [35]?
Answer: The pIC50 was 5.85.

Question: What about the pIC50 [36] of the same compound?
Answer: Its pIC50 is 5.82.

Question: And the pIC50 [37]?
Answer: Its pIC50 is under 5.70.

Question: And the pIC50 [38]?
Answer: Its pIC50 is under 5.70.

Question: And the pIC50 [39]?
Answer: The pIC50 was under 5.70.

Question: And the pIC50 [40]?
Answer: The pIC50 was 6.08.

Question: And the pIC50 [41]?
Answer: The pIC50 was under 5.70.

Question: And the pIC50 [42]?
Answer: Its pIC50 is under 5.70.

Question: What about the pIC50 [43] of the same compound?
Answer: Its pIC50 is 6.26.

Question: And the pIC50 [44]?
Answer: The pIC50 was 5.83.

Question: And the pIC50 [45]?
Answer: Its pIC50 is under 5.70.

Question: What about the pIC50 [46] of the same compound?
Answer: Its pIC50 is under 5.70.

Question: What about the pIC50 [47] of the same compound?
Answer: Its pIC50 is under 5.70.

Question: And the pIC50 [48]?
Answer: Its pIC50 is under 5.70.

Question: What about the pIC50 [49] of the same compound?
Answer: Its pIC50 is under 5.70.

Question: What about the pIC50 [50] of the same compound?
Answer: The pIC50 was 5.79.

Question: What about the pIC50 [51] of the same compound?
Answer: The pIC50 was under 5.70.

Question: And the pIC50 [52]?
Answer: The pIC50 was under 5.70.

Question: What about the pIC50 [53] of the same compound?
Answer: Its pIC50 is under 5.70.

Question: What about the pIC50 [54] of the same compound?
Answer: Its pIC50 is under 5.70.

Question: And the pIC50 [55]?
Answer: Its pIC50 is 5.77.

Question: What about the pIC50 [56] of the same compound?
Answer: The pIC50 was under 5.70.

Question: What about the pIC50 [57] of the same compound?
Answer: Its pIC50 is under 5.70.

Question: And the pIC50 [58]?
Answer: The pIC50 was under 5.70.

Question: And the pIC50 [59]?
Answer: Its pIC50 is under 5.70.

Question: And the pIC50 [60]?
Answer: The pIC50 was under 5.70.

Question: And the pIC50 [61]?
Answer: Its pIC50 is under 5.70.

Question: And the pIC50 [62]?
Answer: Its pIC50 is under 5.70.

Question: What about the pIC50 [63] of the same compound?
Answer: Its pIC50 is under 5.70.

Question: What about the pIC50 [64] of the same compound?
Answer: The pIC50 was under 5.70.

Question: And the pIC50 [65]?
Answer: Its pIC50 is 6.39.

Question: What about the pIC50 [66] of the same compound?
Answer: The pIC50 was under 5.70.

Question: What does the source list for `CC(C)=CC[C@@H](O)C1=CC(=O)c2c(O)ccc(O)c2C1=O` [SHIKONIN]?
Answer: pIC50 [1]: 6.94; pIC50 [2]: < 4.80; pIC50 [3]: 7.71; pIC50 [4]: 6.06; pIC50 [5]: 5.75; pIC50 [6]: 6.45; pIC50 [7]: 5.10; pIC50 [8]: 6.18; pIC50 [9]: 6.12; pIC50 [10]: 5.40; pIC50 [11]: 5.72; pIC50 [12]: < 4.80; pIC50 [13]: 5.88; pIC50 [14]: 6.60; pIC50 [15]: 7.44; pIC50 [16]: 6.33; pIC50 [17]: 6.13; pIC50 [18]: < 4.80; pIC50 [19]: 6.52; pIC50 [20]: 6.11; pIC50 [21]: < 4.80; pIC50 [22]: 6.25; pIC50 [23]: 6.06; pIC50 [24]: < 4.80; pIC50 [25]: 6.57; pIC50 [26]: 6.30; pIC50 [27]: 5.58; pIC50 [28]: 4.95; pIC50 [29]: 6.52; pIC50 [30]: 6.13; pIC50 [31]: 5.88; pIC50 [32]: 6.40; pIC50 [33]: 6.39; pIC50 [34]: 6.14; pIC50 [35]: 5.80; pIC50 [36]: 5.68; pIC50 [37]: 6.17; pIC50 [38]: 5.50; pIC50 [39]: 6.30; pIC50 [40]: < 4.80; pIC50 [41]: 5.56; pIC50 [42]: 4.80; pIC50 [43]: 6.07; pIC50 [44]: 5.49; pIC50 [45]: < 4.80; pIC50 [46]: 6.67; pIC50 [47]: 6.14; pIC50 [48]: 5.55; pIC50 [49]: 5.89; pIC50 [50]: 6.19; pIC50 [51]: < 4.80; pIC50 [52]: 6.00; pIC50 [53]: 6.08; pIC50 [54]: 4.92; pIC50 [55]: 6.56; pIC50 [56]: 6.99; pIC50 [57]: 5.53; pIC50 [58]: 6.04; pIC50 [59]: 6.39; pIC50 [60]: 6.33; pIC50 [61]: 6.41; pIC50 [62]: 6.57; pIC50 [63]: 6.06; pIC50 [64]: 6.39; pIC50 [65]: 4.91; pIC50 [66]: 5.69
